Patent publication US20060069132A1, “Azolecarboxamide herbicides” (priority 2004, published 2006)

Tests used:
barnyardgrass [1] = test: Test A pre-/postemergence herbicide test; format: in vivo, Echinochloa crus-galli
Outline: (§1)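 Pre: seeded sandy loam, directed soil spray, compound in non-phytotoxic solvent + surfactant. Post: 1–2-leaf plants (2–10 cm), sprayed to runoff. Greenhouse ~10 d; visual injury vs untreated, 0–100 scale.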

large crabgrass [2] = test: Test A pre-/postemergence herbicide test; format: in vivo, Digitaria sanguinalis
Outline: as §1

giant foxtail [3] = test: Test A pre-/postemergence herbicide test; format: in vivo, Setaria faberi
Outline: as §1

morningglory [4] = test: Test A pre-/postemergence herbicide test; format: in vivo, Ipomoea spp.
Outline: as §1

redroot pigweed = test: Test A pre-/postemergence herbicide test; format: in vivo, Amaranthus retroflexus
Outline: as §1

velvetleaf [5] = test: Test A pre-/postemergence herbicide test; format: in vivo, Abutilon theophrasti
Outline: as §1

barnyardgrass [6] = test: Test B pre-/postemergence herbicide test; format: in vivo, Echinochloa crus-galli; conditions: for Barnyardgrass plant response rating: postemergence
Outline: (§2)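 Pre: seeds sown, then sprayed. Post: 1–4-leaf plants (2–18 cm) sprayed at the same time. Paddy: flooded, treated at 2-leaf stage. Formulation: non-phytotoxic solvent with surfactant. Greenhouse 13–15 days; visual 0–100 score relative to controls.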

Surinam grass = test: Test B pre-/postemergence herbicide test; format: in vivo, Urochloa decumbens; conditions: for Surinam Grass plant response rating: postemergence
Outline: (§3)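 Seeds were planted and treated preemergence with compounds formulated in a non-phytotoxic solvent mixture containing surfactant, while plants at the 1- to 4-leaf stage (2 to 18 cm) received postemergence sprays. Flooded paddy plants were grown to the 2-leaf stage. After 13 to 15 days in a greenhouse, injury was visually rated 0–100 against untreated controls.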

cocklebur = test: Test B pre-/postemergence herbicide test; format: in vivo, Xanthium strumarium; conditions: for Cocklebur plant response rating: postemergence
Outline: as §2

corn = test: Test B pre-/postemergence herbicide test; format: in vivo, Zea mays; conditions: for Corn plant response rating: postemergence
Outline: as §3

large crabgrass [7] = test: Test B pre-/postemergence herbicide test; format: in vivo, Digitaria sanguinalis; conditions: for Crabgrass, Large plant response rating: postemergence
Outline: as §3

giant foxtail [8] = test: Test B pre-/postemergence herbicide test; format: in vivo, Setaria faberi; conditions: for Foxtail, Giant plant response rating: postemergence
Outline: as §3

lambsquarters = test: Test B pre-/postemergence herbicide test; format: in vivo, Chenopodium album; conditions: for Lambsquarters plant response rating: postemergence
Outline: as §3

morningglory [9] = test: Test B pre-/postemergence herbicide test; format: in vivo, Ipomoea coccinea; conditions: for Morningglory plant response rating: postemergence
Outline: as §2

pigweed = test: Test B pre-/postemergence herbicide test; format: in vivo, Amaranthus retroflexus; conditions: for Pigweed plant response rating: postemergence
Outline: as §3

rice [10] = test: Test B pre-/postemergence herbicide test; format: in vivo, Oryza sativa; conditions: preemergence
Outline: as §3

velvetleaf [11] = test: Test B pre-/postemergence herbicide test; format: in vivo, Abutilon theophrasti; conditions: for Velvetleaf plant response rating: postemergence
Outline: as §3

blackgrass = test: Test B postemergence herbicide test; format: in vivo, Alopecurus myosuroides; conditions: postemergence
Outline: (§4)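 Read-out: visual comparison with controls, scored 0 to 100, where 100 means complete control and 0 no effect. Formulated chemicals were applied postemergence to plants 2–18 cm tall (1- to 4-leaf), or to flooded-paddy plants at the 2-leaf stage, then held 13 to 15 days under glass.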

wheat = test: Test B postemergence herbicide test; format: in vivo, Triticum aestivum; design: key to Wheat plant response rating: 0 = no effect, 100 = complete control; conditions: postemergence
Outline: (§5)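 Scale 0–100: zero equals no visible effect, 100 complete control, judged by eye relative to controls. Timing: 13 to 15 days in greenhouse post-treatment. Growth stage at spraying: two leaves (paddy) or one to four leaves, 2–18 cm (postemergence).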

wild oat = test: Test B postemergence herbicide test; format: in vivo, Avena fatua; conditions: postemergence
Outline: as §5

rice [12] = test: Test B flooded paddy test; format: in vivo, Oryza sativa; conditions: 1000 g ai/ha, scale 0 to 100 (0 no effect, 100 complete control)
Outline: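 Visual ratings, 0 (no effect) to 100 (complete control), made versus controls after 13–15 d greenhouse. Paddy plants treated at 2-leaf stage; postemergence plants at 1- to 4-leaf stage, 2–18 cm tall.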

[13] = system: small flower umbrella sedge; test: Test B flooded paddy test; format: in vivo, Cyperus difformis; conditions: 1000 g ai/ha, scale 0 to 100 (0 no effect, 100 complete control)
Outline: as §4

ducksalad = test: Test B flooded paddy test; format: in vivo, Heteranthera limosa; conditions: 1000 g ai/ha, scale 0 to 100 (0 no effect, 100 complete control)
Outline: as §4

barnyardgrass [14] = test: Test B flooded paddy test; format: in vivo, Echinochloa crus-galli; conditions: 1000 g ai/ha, scale 0 to 100 (0 no effect, 100 complete control)
Outline: as §4

[15] = Postemergence, 500 g ai/ha, 0 to 100 scale, 0 no effect, 100 complete control
[16] = Postemergence, 2000 g ai/ha, 0 to 100 scale, 0 no effect, 100 complete control
[17] = Preemergence, 2000 g ai/ha, visual rating, 0 to 100 scale (0 no effect, 100 complete control)
[18] = preemergence, 500 g ai/ha, visual injury, 0 to 100 scale (0 no effect, 100 complete control)
[19] = 125 g ai/ha, 0 is no effect, 100 is complete control, preemergence
[20] = 125 g ai/ha, visual rating, scale 0 (no effect) to 100 (complete control)
[21] = 500 g ai/ha, visual rating, 0 = no effect, 100 = complete control, preemergence
[22] = 500 g ai/ha, scale 0 to 100, 0 is no effect, 100 is complete control

CCSCNC(=O)c1cccc(NC(=O)c2cc(C(C)(C)C)nn2CC)c1 [Compound 329]
Barnyardgrass plant response rating (barnyardgrass [1]; [15]): 15
Plant response rating, Barnyardgrass (barnyardgrass [1]; [16]): 20
Barnyardgrass plant response rating (barnyardgrass [1]; [17]): 5
Barnyardgrass plant response rating (barnyardgrass [1]; [18]): 0
Crabgrass, Large plant response rating (large crabgrass [2]; [15]): 10
Plant response rating, Crabgrass, Large (large crabgrass [2]; [16]): 5
Crabgrass, Large plant response rating (large crabgrass [2]; [17]): 0
Crabgrass, Large plant response rating (large crabgrass [2]; [18]): 0
Foxtail, Giant plant response rating (giant foxtail [3]; [15]): 10
Plant response rating, Foxtail, Giant (giant foxtail [3]; [16]): 20
Foxtail, Giant plant response rating (giant foxtail [3]; [17]): 5
Foxtail, Giant plant response rating (giant foxtail [3]; [18]): 0
Morningglory plant response rating (morningglory [4]; [15]): 10
Plant response rating, Morningglory (morningglory [4]; [16]): 20
Morningglory plant response rating (morningglory [4]; [17]): 10
Morningglory plant response rating (morningglory [4]; [18]): 0
Pigweed plant response rating (redroot pigweed; [15]): 10
Plant response rating, Pigweed (redroot pigweed; [16]): 45
Pigweed plant response rating (redroot pigweed; [17]): 10
Pigweed plant response rating (redroot pigweed; [18]): 5
Velvetleaf plant response rating (velvetleaf [5]; [15]): 10
Plant response rating, Velvetleaf (velvetleaf [5]; [16]): 25
Velvetleaf plant response rating (velvetleaf [5]; [17]): 10
Velvetleaf plant response rating (velvetleaf [5]; [18]): 0
Plant response rating (0 to 100 scale), Barnyardgrass (barnyardgrass [6]; [19]): 0
Barnyardgrass plant response rating (barnyardgrass [6]; [20]): 0
Plant response rating, Barnyardgrass (barnyardgrass [6]; [21]): 0
Barnyardgrass plant response rating (barnyardgrass [6]; [22]): 10
Plant response rating (0 to 100 scale), Surinam Grass (Surinam grass; [19]): 0
Surinam Grass plant response rating (Surinam grass; [20]): 10
Plant response rating, Surinam Grass (Surinam grass; [21]): 0
Surinam Grass plant response rating (Surinam grass; [22]): 20
Plant response rating (0 to 100 scale), Cocklebur (cocklebur; [19]): 0
Cocklebur plant response rating (cocklebur; [20]): 0
Plant response rating, Cocklebur (cocklebur; [21]): 0
Cocklebur plant response rating (cocklebur; [22]): 30
Plant response rating (0 to 100 scale), Corn (corn; [19]): 0
Corn plant response rating (corn; [20]): 0
Plant response rating, Corn (corn; [21]): 0
Corn plant response rating (corn; [22]): 20
Plant response rating (0 to 100 scale), Crabgrass, Large (large crabgrass [7]; [19]): 0
Crabgrass, Large plant response rating (large crabgrass [7]; [20]): 0
Plant response rating, Crabgrass, Large (large crabgrass [7]; [21]): 0
Crabgrass, Large plant response rating (large crabgrass [7]; [22]): 10
Plant response rating (0 to 100 scale), Foxtail, Giant (giant foxtail [8]; [19]): 0
Foxtail, Giant plant response rating (giant foxtail [8]; [20]): 10
Plant response rating, Foxtail, Giant (giant foxtail [8]; [21]): 0
Foxtail, Giant plant response rating (giant foxtail [8]; [22]): 30
Plant response rating (0 to 100 scale), Lambsquarters (lambsquarters; [19]): 0
Lambsquarters plant response rating (lambsquarters; [20]): 30
Lambsquarters plant response rating (lambsquarters; [22]): 70
Plant response rating (0 to 100 scale), Morningglory (morningglory [9]; [19]): 0
Morningglory plant response rating (morningglory [9]; [20]): 0
Plant response rating, Morningglory (morningglory [9]; [21]): 0
Morningglory plant response rating (morningglory [9]; [22]): 20
Plant response rating (0 to 100 scale), Pigweed (pigweed; [19]): 0
Pigweed plant response rating (pigweed; [20]): 50
Plant response rating, Pigweed (pigweed; [21]): 0
Pigweed plant response rating (pigweed; [22]): 80
Plant response rating (0 to 100 scale), Rice (rice [10]; 125 g ai/ha, 0 is no effect, 100 is complete control): 0
Plant response rating, Rice (rice [10]; 500 g ai/ha, visual rating, 0 = no effect, 100 = complete control): 0
Plant response rating (0 to 100 scale), Velvetleaf (velvetleaf [11]; [19]): 0
Velvetleaf plant response rating (velvetleaf [11]; [20]): 10
Plant response rating, Velvetleaf (velvetleaf [11]; [21]): 0
Velvetleaf plant response rating (velvetleaf [11]; [22]): 30
Blackgrass plant response rating (blackgrass; [20]): 20
Blackgrass plant response rating (blackgrass; [22]): 20
Wheat plant response rating (wheat; [20]): 20
Wheat plant response rating (wheat; [22]): 30
Oat, Wild plant response rating (wild oat; [20]): 20
Oat, Wild plant response rating (wild oat; [22]): 30
Rice plant response rating (rice [12]): 0
Sedge, Umbrella plant response rating [13]: 0
Ducksalad plant response rating (ducksalad): 0
Barnyardgrass plant response rating (barnyardgrass [14]): 0
